Data reported in ChEMBL document CHEMBL5058564, “EUbOPEN Chemogenomics Library 2 (Incucyte)” (2022).

Legend:
Type in all cases: toxicity, cell-based
HEK-293T = experiment: Incucyte cell viability with HEK293T; conditions: human, 10 µM, compound concentration 10 uM
Fibroblast = experiment: Incucyte cell viability with human fibroblast; conditions: 10 µM, compound concentration 10 uM
U2OS = experiment: Incucyte cell viability with U2OS; conditions: human, 10 µM, compound concentration 10 uM
[1] = 0 h, replicate number 2, timepoint 0 hours
[2] = 6 h, replicate number 1, timepoint 6 hours
[3] = 6 h, replicate number 2, timepoint 6 hours
[4] = 12 h, replicate number 1, timepoint 12 hours
[5] = 12 h, replicate number 2, timepoint 12 hours
[6] = 18 h, replicate number 1, timepoint 18 hours
[7] = 18 h, replicate number 2, timepoint 18 hours
[8] = 24 h, replicate number 1, timepoint 24 hours
[9] = 24 h, replicate number 2, timepoint 24 hours
[10] = 0 h, replicate number 1, timepoint 0 hours
Further: unitless GR value; below 1 slowed growth and below 0 cell loss.

Row | Compound | Growth Rate (HEK-293T; [1]) | Growth Rate (HEK-293T; [2]) | Growth Rate (HEK-293T; [3]) | Growth Rate (HEK-293T; [4]) | Growth Rate (HEK-293T; [5]) | Growth Rate (HEK-293T; [6]) | Growth Rate (HEK-293T; [7]) | Growth Rate (HEK-293T; [8]) | Growth Rate (HEK-293T; [9]) | Growth Rate (Fibroblast; [1]) | Growth Rate (Fibroblast; [2]) | Growth Rate (Fibroblast; [4]) | Growth Rate (Fibroblast; [7]) | Growth Rate (Fibroblast; [8]) | Growth Rate (Fibroblast; [9]) | Growth Rate (U2OS; [1]) | Growth Rate (U2OS; [2]) | Growth Rate (U2OS; [5]) | Growth Rate (U2OS; [6]) | Growth Rate (U2OS; [7]) | other results
1 | CC[C@H]1CN2CCc3cc(OC)c(OC)cc3[C@@H]2C[C@@H]1C[C@H]1NCCc2cc(OC)c(OC)cc21 [EMETINE] | 0.89 | -0.64 | -0.77 | -0.71 | -0.68 | -0.56 | -0.65 | -0.45 | -0.51 | 0.68 | -0.4 | -0.71 | -0.61 | -0.47 | -0.61 | -1 | 0.25 | 0.49 | 0.21 | 0.25 | Growth Rate (Fibroblast; [3]): -0.75; Growth Rate (Fibroblast; [5]): -0.61; Growth Rate (Fibroblast; [6]): -0.63; Growth Rate (U2OS; [3]): 0.89; Growth Rate (U2OS; [4]): 0.43; Growth Rate (U2OS; [8]): 0; Growth Rate (U2OS; [9]): 0.17
2 | CC(C)CC(=O)Nc1cncc(-c2ccc3[nH]nc(-c4nc5c(-c6cccc(F)c6)cncc5[nH]4)c3c2)c1 [LORECIVIVINT] | – | -0.81 | -0.95 | -0.55 | -0.81 | -0.48 | -0.64 | -0.44 | -0.57 | 0.49 | -0.2 | 0.36 | 0.01 | 0.43 | -0.02 | -0.94 | -0.82 | 0.32 | -0.16 | 0.98 | Growth Rate (Fibroblast; [3]): -0.06; Growth Rate (Fibroblast; [5]): -0.03; Growth Rate (Fibroblast; [6]): 0.73; Growth Rate (U2OS; [10]): -0.33; Growth Rate (U2OS; [3]): -0.16; Growth Rate (U2OS; [4]): -0.56; Growth Rate (U2OS; [8]): 0.71
3 | CN1C[C@H](C(=O)N[C@]2(C)O[C@@]3(O)[C@@H]4CCCN4C(=O)[C@H](Cc4ccccc4)N3C2=O)C[C@@H]2c3cccc4[nH]cc(c34)C[C@H]21.CS(=O)(=O)O [DIHYDROERGOTAMINE MESYLATE] | -0.38 | – | – | 0.96 | – | 0.98 | – | – | – | -0.55 | – | – | – | – | – | – | 0.44 | – | 0.95 | – | Growth Rate (HEK-293T; [10]): -0.57; Growth Rate (Fibroblast; [10]): -0.33; Growth Rate (U2OS; [10]): 0.01
4 | C=CCNc1ncnc2ccc(Br)cc12 | 0.64 | 0.57 | – | 0.84 | – | 0.58 | 0.9 | 0.91 | 0.96 | 0.05 | – | 0.47 | 0.98 | 0.45 | 0.75 | 0.44 | – | 0.77 | 0.82 | 0.85 | Growth Rate (HEK-293T; [10]): 0.98; Growth Rate (Fibroblast; [6]): 0.3; Growth Rate (U2OS; [4]): 0.96; Growth Rate (U2OS; [8]): 0.97; Growth Rate (U2OS; [9]): 0.9
5 | C[C@H]1CN(C[C@H](Cc2ccccc2)C(=O)NCC(=O)O)CC[C@@]1(C)c1cccc(O)c1 [ALVIMOPAN] | 0.08 | – | 0.52 | 0.9 | 0.53 | 1 | 0.88 | 0.93 | 0.85 | -0.31 | – | – | – | – | – | 0.76 | 0.22 | 0.99 | 0.91 | 0.92 | Growth Rate (HEK-293T; [10]): 0.62; Growth Rate (Fibroblast; [10]): 0.37; Growth Rate (U2OS; [9]): 0.94
6 | Cc1cc(OCCCS(C)(=O)=O)cc(C)c1-c1cccc(COc2ccc3c(c2)OC[C@H]3CC(=O)O)c1 | – | – | – | – | – | 0.7 | – | 0.69 | – | 0.69 | -0.03 | 1 | 0.31 | 0.78 | 0.67 | – | – | 0.89 | – | 0.9 | Growth Rate (Fibroblast; [3]): 0.19; Growth Rate (Fibroblast; [5]): 0.55; Growth Rate (U2OS; [10]): 0.26; Growth Rate (U2OS; [3]): 0.73
7 | Cc1ccc(O)c([C@H](CCN(C(C)C)C(C)C)c2ccccc2)c1.O=C(O)C(O)C(O)C(=O)O [TOLTERODINE TARTRATE] | 0.52 | 0.89 | – | 0.79 | – | – | – | – | – | 0.83 | 0.59 | 0.92 | – | – | – | 0.94 | 0.98 | – | – | – | Growth Rate (U2OS; [10]): -0.73
8 | CS(=O)(=O)c1ccc(C(=O)Nc2ccc(Cl)c(-c3ccccn3)c2)c(Cl)c1 [VISMODEGIB] | 0.86 | 0.99 | 0.75 | 0.8 | 0.84 | 0.81 | 0.92 | 0.83 | – | – | 0.27 | 0.7 | 0.59 | 0.29 | 0.73 | -1 | 0.94 | 0.78 | – | 0.84 | Growth Rate (HEK-293T; [10]): 1; Growth Rate (Fibroblast; [3]): 0.96; Growth Rate (Fibroblast; [5]): 0.84; Growth Rate (Fibroblast; [6]): 0.67; Growth Rate (U2OS; [3]): 0.8; Growth Rate (U2OS; [9]): 0.86
